Experimental data from US9006216B2, “Biocidal aldehyde composition for oil and gas extraction” (priority 2009, dated 2015).

What was measured:
[1] = test system: acid-producing bacteria (APB); test: Effective kill time of acid-producing bacteria; assay type: cell-based
Description: When TTPC was added to the core Glutaraldehyde or OPA as a substitute for dual chain quaternary ammonium the effective kill time was twice as fast (2×) based upon log reduction. Similarly, the TTPC reduced the effective kill time of acid-producing bacteria (APB) by almost 50%. Although the kill speed of TTPC alone was 20% slower than the glut/quat formula of copending U.S. patent application Ser. No. 12/584,650, when TTPC is combined with glutaraldehyde as a substitute for dual chain quaternary ammonium the kill time increased to four times 4× faster, evidencing the synergism of the present combination.

[2] = test system: aerobic organisms; test: Killing of aerobic organisms in oil frac water (5 log reduction); assay type: cell-based; settings: based upon a 5 log reduction in oil frac water
From the text: (§1) As such there is actually a slight increase in planktonic microbes which are more susceptible to biocide/TTPC effects. Individual biocides affect the physiology of the cell quite differently. […] This is an example of enhanced quantum complementarity. The importance of the environmental parameter cannot be underestimated based upon the foregoing results. TTPC has a similar margin of exposure as the quats for oil field imputability with friction reducers for killing of aerobic organisms. […] The minimum inhibitory concentration (MIC) for the TTPC usage is 50-500 ppm. Therefore it is safe regarding corrosiveness, an important facet in well treatment. […] The faster cidal action is due basically to the chemistry difference between amine quats and phosphonium salts. The ammonium quats have longer alkyl chains. Instead of amine the difference is a phosphonium ion but also importantly is the alkyl chain length. It has been determined that there is an optimal length for anti-bacterial effectiveness. It was dependent upon chain length and attachment moieties. […] Usually the longer chain was better but not in these cases. […] TTPC did. There are great differences between Gram + and Gram − bacteria in their cell walls. […] The Gram − wall is complicated. It has in addition to the wall of G+ an outer membrane of lipopolysaccharides and phospholipids that protect the cell.

[3] = test system: sulfur reducing bacteria (SRB); test: Efficacy in oil/gas fields on sulfur reducing bacteria; assay type: cell-based
From the text: as §1

[4] = test system: biofilm; test: Biofilm removability; settings: secondary oil and gas recovery
From the text: as §1

[5] = test system: Pseudomonas aeruginosa; test: Chlorine dioxide and TTPC versus Pseudomonas aeruginosa, log reduction; assay type: cell-based; settings: ClO2 of 10 ppm alone; 10^5 ml; 30 min exposure
Description: A test with chlorine dioxide (ClO2) and TTPC versus Pseudomonas aeruginosa was performed at 10^5 ml with ClO2 of 10 ppm. This alone gave a 1 log reduction in 30 min exposure. TTPC alone at 50 ppm gave a 2 log reduction. The combination of ClO2 and TTPC of 5 ppm and 10 ppm gave a 5 log reduction in 30 min.

[6] = 20-22 degrees C; high level disinfectant; cited from earlier work
[7] = test system: Pseudomonas aeruginosa; settings: cited from earlier work
[8] = test system: mycobacterial strains; settings: cited from earlier work

CCCCCCCCCCCCCC[P+](CCCC)(CCCC)CCCC.[Cl-] [TTPC, tributyl tetradecyl phosphonium chloride]
reduction of effective kill time of acid-producing bacteria (APB) [1]: ~50% | effectiveness relative to the original glut/quat formula [2]: twice as effective | efficacy on sulfur reducing bacteria (SRB) [3]: almost equally effective | biofilm removability compared to quaternary ammonium [4]: superior biofilm removability

[O][Cl+][O-] [ClO2, chlorine dioxide]
log reduction [5]: 1 log

O=Cc1ccccc1C=O [OPA, ortho-phthalaldehyde]
disinfection time [6]: twelve | bactericidal activity against Pseudomonas aeruginosa [7]: good | bactericidal activity against mycobacterial strains [8]: limited activity
